Read-outs that look alike come from different tables or passages of the source. Starred links: 1 amine or outer side, 2 acyl side, 3 side chain; linkers in the order of their positions; H or OH if unused. Non-standard residues stand in square brackets, D forms with d. Residues, ends and D or L forms follow the SMILES beside them. *: point of attachment. dBip = N[C@H](Cc1ccc(-c2ccccc2)cc1)C(=O)O; Oic = O=C(O)[C@@H]1C[C@@H]2CCCC[C@@H]2N1; Phe(4-Cl) = N[C@@H](Cc1ccc(Cl)cc1)C(=O)O; Phe(4-I) = N[C@@H](Cc1ccc(I)cc1)C(=O)O; γGlu = O=C(O)[C@H](CCC(=O)[*:2])N[*:1]; d(β3hF) = N[C@@H](CC(=O)O)Cc1ccccc1; NMeR = CN[C@@H](CCCNC(=N)N)C(=O)O; Palmitoyl = CCCCCCCCCCCCCCCC(=O)*; Tridecanoyl = CCCCCCCCCCCCC(=O)*; hArg = N=C(N)NCCCC[C@H](N)C(=O)O; Cha = N[C@@H](CC1CCCCC1)C(=O)O; NMeL = CN[C@@H](CC(C)C)C(=O)O; β3hL = CC(C)C[C@H](N)CC(=O)O; β3hP = O=C(O)C[C@@H]1CCCN1; Nle = CCCC[C@H](N)C(=O)O; Orn = NCCC[C@H](N)C(=O)O; AEEA = NCCOCCOCC(=O)O
Columns and labels:
rat APJ receptor = target: T1, rat APJ receptor (Rattus norvegicus, UniProt Q9JHG3); test: [35S] GTPγS assay, rat APJ receptor; assay type: biochemical
T1 construct: expressed in transfected cells
T1 sequence (Q9JHG3 1-377): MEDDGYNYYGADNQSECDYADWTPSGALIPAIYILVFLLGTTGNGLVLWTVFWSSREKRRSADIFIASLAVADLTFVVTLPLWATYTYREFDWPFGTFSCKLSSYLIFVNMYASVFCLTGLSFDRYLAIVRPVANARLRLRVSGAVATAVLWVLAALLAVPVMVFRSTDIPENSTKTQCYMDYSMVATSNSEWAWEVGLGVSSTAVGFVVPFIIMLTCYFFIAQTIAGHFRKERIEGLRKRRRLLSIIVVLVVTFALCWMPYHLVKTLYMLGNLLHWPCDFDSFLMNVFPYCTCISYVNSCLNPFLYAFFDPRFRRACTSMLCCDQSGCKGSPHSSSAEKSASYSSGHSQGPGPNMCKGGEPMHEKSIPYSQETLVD
Protocol: The membranes were incubated with modified peptides in the assay buffer. […] Bound [^35S] GTPγS was separated from free radiolabel by filtration. The filter bound radioactivity was determined by liquid scintillation counting.

human APJ receptor = target: T2, human APJ receptor (Homo sapiens, UniProt P35414); test: [35S] GTPγS assay, human APJ receptor; assay type: biochemical
T2 construct: expressed in transfected cells
T2 sequence (P35414 1-380): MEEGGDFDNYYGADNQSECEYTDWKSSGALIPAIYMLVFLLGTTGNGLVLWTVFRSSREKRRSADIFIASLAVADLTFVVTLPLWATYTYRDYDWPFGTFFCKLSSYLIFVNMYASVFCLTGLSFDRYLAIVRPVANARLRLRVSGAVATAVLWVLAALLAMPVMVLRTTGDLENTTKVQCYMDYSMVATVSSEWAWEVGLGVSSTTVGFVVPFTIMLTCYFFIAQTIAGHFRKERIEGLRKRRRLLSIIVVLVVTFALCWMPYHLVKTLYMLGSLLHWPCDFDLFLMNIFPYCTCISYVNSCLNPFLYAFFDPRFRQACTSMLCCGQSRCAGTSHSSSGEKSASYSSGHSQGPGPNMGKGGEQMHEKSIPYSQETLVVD

[1] = rat APJ receptor, read-out: EC50 Rat APJ Receptor

| EC50 (rat APJ receptor; [1]) [nM] | EC50 (human APJ receptor; human APJ receptor) [nM] | EC50 (rat APJ receptor; Table 16, read-out: EC50 Rat APJ Receptor) [nM] | EC50 (human APJ receptor; Table 16) [nM] | Structure (SMILES) |
| --- | --- | --- | --- | --- |
| 11.1 | 2.47 |  |  | CCCCCCCCCCCCCCCC(=O)N[C@@H](CCC(=O)NCCOCCOCC(=O)NCCOCCOCC(=O)N[C@H](CCC(N)=O)C(=O)N[C@@H](CCCNC(=N)N)C(=O)N1CCC[C@H]1C(=O)N(C)[C@@H](CCCNC(=N)N)C(=O)N[C@@H](CC1CCCCC1)C(=O)N[C@@H](CO)C(=O)N[C@@H](Cc1c[nH]cn1)C(=O)N[C@@H](CCCN)C(=O)NCC(=O)N1[C@H](C(=O)N[C@@H](CCCC)C(=O)N2CCC[C@H]2CC(=O)N[C@@H](CC(=O)O)Cc2ccccc2)C[C@@H]2CCCC[C@@H]21)C(=O)O [compound 618] ({Palmitoyl-γGlu-AEEA-AEEA}-[dQ]RP[NMeR][Cha]SH[Orn]G[Oic][Nle][β3hP][d(β3hF)]-OH) |
| > 4170 | > 4170 |  |  | CC(=O)N[C@@H](CCCCNC(=N)N)C(=O)N[C@H](CCCNC(=N)N)C(=O)N[C@@H](CCC(N)=O)C(=O)N[C@@H](CCCCNC(=N)N)C(=O)N1CCC[C@H]1C(=O)N[C@H](CCCNC(=N)N)C(=O)N(C)[C@@H](CC(C)C)C(=O)N[C@@H](CO)C(=O)N[C@@H](Cc1c[nH]cn1)C(=O)N[C@@H](CCCCN)C(=O)NCC(=O)N[C@@H](CCC(=O)O)C(=O)N[C@@H](Cc1ccc(I)cc1)C(=O)N1CCC[C@H]1C(=O)N[C@H](Cc1ccc(-c2ccccc2)cc1)C(=O)O [compound 85] (Ac-[hArg][dR]Q[hArg]P[dR][NMeL]SHKGE[Phe(4-I)]P[dBip]-OH) |
|  |  | 0.341 | 0.177 | CCCCCCCCCCCCC(=O)N[C@@H](CCC(=O)NCCOCCOCC(=O)NCCOCCOCC(=O)N[C@H](CCCNC(=N)N)C(=O)N[C@H](CCC(N)=O)C(=O)N[C@@H](CCCCNC(=N)N)C(=O)N1CCC[C@H]1C(=O)N[C@@H](CCCCNC(=N)N)C(=O)N[C@@H](CC1CCCCC1)C(=O)N[C@@H](CO)C(=O)N[C@@H](Cc1c[nH]cn1)C(=O)N[C@@H](CCCCN)C(=O)NCC(=O)N1[C@H](C(=O)N[C@@H](CCCC)C(=O)N2CCC[C@H]2C(=O)N[C@@H](Cc2ccc(Cl)cc2)C(=O)O)C[C@@H]2CCCC[C@@H]21)C(=O)O [compound 481] ({Tridecanoyl-γGlu-AEEA-AEEA}-[dR][dQ][hArg]P[hArg][Cha]SHKG[Oic][Nle]P[Phe(4-Cl)]-OH) |
| 36.2 | 37.6 |  |  | CCCCCCCCCCCCC(=O)N[C@@H](CCC(=O)NCCOCCOCC(=O)NCCOCCOCC(=O)N[C@@H](CCCCNC(=N)N)C(=O)N[C@H](CCCNC(=N)N)C(=O)N[C@@H](CCC(N)=O)C(=O)N[C@@H](CCCCNC(=N)N)C(=O)N1CCC[C@H]1C(=O)N[C@@H](CCCC)C(=O)N(C)[C@@H](CC(C)C)C(=O)N[C@@H](C)C(=O)N[C@@H](C)C(=O)N[C@@H](CCCCN)C(=O)NCC(=O)N1[C@H](C(=O)N[C@@H](Cc2ccc(I)cc2)C(=O)N2CCC[C@H]2C(=O)N[C@H](Cc2ccc(-c3ccccc3)cc2)C(=O)O)C[C@@H]2CCCC[C@@H]21)C(=O)O [compound 329] ({Tridecanoyl-γGlu-AEEA-AEEA}-[hArg][dR]Q[hArg]P[Nle][NMeL]AAKG[Oic][Phe(4-I)]P[dBip]-OH) |
| 0.286 | 0.0934 |  |  | CCCCCCCCCCCCC(=O)N[C@@H](CCC(=O)NCCOCCOCC(=O)NCCOCCOCC(=O)N[C@H](CC(=O)N[C@@H](CCCNC(=N)N)C(=O)N1CCC[C@H]1C(=O)N(C)[C@@H](CCCNC(=N)N)C(=O)N[C@@H](CC(C)C)C(=O)N[C@@H](CO)C(=O)N[C@@H](Cc1c[nH]cn1)C(=O)N[C@@H](CCCCN)C(=O)NCC(=O)N1CCC[C@H]1C(=O)N[C@@H](CCCC)C(=O)N1CCC[C@H]1C(=O)N[C@@H](Cc1ccc(Cl)cc1)C(=O)O)CC(C)C)C(=O)O [compound 421] ({Tridecanoyl-γGlu-AEEA-AEEA}-[β3hL]RP[NMeR]LSHKGP[Nle]P[Phe(4-Cl)]-OH) |
